In the supplement of paper PMC10307832:

Legend:
Assay in all cases: relative viability (nuclei count vs DMSO), 5 days (fraction); higher = more cells survive
QS11 + AZD7762 = compound: C1CC2=C(C1)C=C(C=C2)OC3=NC(=C4C(=N3)N(C=N4)CC5=CC=C(C=C5)C6=CC=CC=C6)N[C@@H](CC7=CC=CC=C7)CO [QS11] + NC(=O)Nc1cc(-c2cccc(F)c2)sc1C(=O)N[C@H]1CCCNC1 [AZD7762] (partner 0.2 µM)
Method in brief: (§1)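 Medians of duplicate plates are given as relative viability. That measure is the nuclei count in treated wells divided by the count in vehicle wells. Counts were taken on 4× images of lung cancer cell lines in 1536-well plates, 5 days after pin-tool dosing the day after seeding with one drug alone or a fixed anchor-drug dose plus five library-drug doses (not always all listed) in √10 steps.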

QS11 + Lapatinib = compound: C1CC2=C(C1)C=C(C=C2)OC3=NC(=C4C(=N3)N(C=N4)CC5=CC=C(C=C5)C6=CC=CC=C6)N[C@@H](CC7=CC=CC=C7)CO [QS11] + CS(=O)(=O)CCNCc1ccc(-c2ccc3ncnc(Nc4ccc(OCc5cccc(F)c5)c(Cl)c4)c3c2)o1 [Lapatinib] (partner 2 µM)
Method in brief: as §1

Darinaparsin + Olaparib = compound: C[As](C)SC[C@H](NC(=O)CC[C@H](N)C(=O)O)C(=O)NCC(=O)O [Darinaparsin] + O=C(c1cc(Cc2n[nH]c(=O)c3ccccc23)ccc1F)N1CCN(C(=O)C2CC2)CC1 [Olaparib] (partner 8 µM)
Method in brief: as §1

[1] = compound: C[As](C)SC[C@H](NC(=O)CC[C@H](N)C(=O)O)C(=O)NCC(=O)O [Darinaparsin] + CC(=O)Nc1cccc(-n2c(=O)n(C3CC3)c(=O)c3c(Nc4ccc(I)cc4F)n(C)c(=O)c(C)c32)c1 [Trametinib] (partner 0.02 µM)
Method in brief: as §1

Row | Cell Line | relative viability (QS11 + AZD7762; first compound 0.08 µM) | relative viability (QS11 + AZD7762; first compound 0.253 µM) | relative viability (QS11 + AZD7762; first compound 0.8 µM) | relative viability (QS11 + AZD7762; first compound 2.53 µM) | relative viability (QS11 + AZD7762; first compound 8 µM) | relative viability (QS11 + Lapatinib; first compound 0.08 µM) | relative viability (QS11 + Lapatinib; first compound 0.253 µM) | relative viability (QS11 + Lapatinib; first compound 0.8 µM) | relative viability (QS11 + Lapatinib; first compound 2.53 µM) | relative viability (QS11 + Lapatinib; first compound 8 µM) | relative viability (Darinaparsin + Olaparib; first compound 0.08 µM) | relative viability (Darinaparsin + Olaparib; first compound 0.8 µM) | relative viability (Darinaparsin + Olaparib; first compound 2.53 µM) | relative viability (Darinaparsin + Olaparib; first compound 8 µM) | relative viability ([1]; first compound 0.08 µM) | relative viability ([1]; first compound 0.8 µM) | relative viability ([1]; first compound 2.53 µM) | relative viability ([1]; first compound 8 µM)
1 | NCI-H460 | 0.703 | 0.644 | 0.493 | 0.638 | 0.889 | 1.4 | 1.14 | 0.567 | 0.686 | 0.24 | 0.614 | 0.413 | 0.435 | 0.324 | 0.312 | 0.329 | 0.12 | 0.166
2 | PC-14 | 0.276 | 0.278 | 0.369 | 0.318 | 0.443 | 0.277 | 0.315 | 0.257 | 0.249 | 0.329 | 0.234 | 0.261 | 0.222 | 0.225 | 1.08 | 0.798 | 0.741 | 0.923
3 | HCC-15 | 1.27 | 1.26 | 0.877 | 1.22 | 0.461 | 0.874 | 0.952 |  | 0.883 | 0.748 | 0.762 | 0.712 | 0.738 | 0.722 | 0.409 | 0.321 | 0.27 | 0.415
4 | NCI-H1437 | 1.12 | 1.18 | 0.891 | 1.08 | 1.11 | 0.832 | 0.846 | 0.581 | 0.704 | 0.598 | 0.705 | 0.623 | 0.615 | 0.689 | 0.594 | 0.562 | 0.505 | 0.674
5 | NCI-H1975 | 0.668 | 0.629 | 0.849 | 0.874 | 0.919 | 0.912 | 0.805 | 0.965 | 1.03 | 1.18 | 1.09 | 0.782 | 0.808 | 1.02 | 0.35 | 0.382 | 0.328 | 0.307
6 | NCI-H1666 | 0.959 | 0.806 | 0.682 | 0.727 | 0.63 | 0.607 | 0.398 | 0.542 | 0.578 | 0.42 | 0.734 | 0.746 | 0.834 | 0.72 | 1.03 | 0.845 | 0.858 | 0.912
7 | A-427 | 0.673 | 0.744 |  | 0.856 | 1.05 | 0.881 | 1.08 |  | 1.12 | 1.07 | 0.71 | 0.8 | 0.787 | 0.791 | 0.721 | 0.663 | 0.758 | 0.796
8 | EKVX | 0.693 | 0.743 | 0.627 | 0.649 | 0.755 | 0.189 | 0.167 |  | 0.216 | 0.201 | 0.878 | 0.697 | 0.801 | 0.735 | 0.339 | 0.33 | 0.344 | 0.333
9 | NCI-H650 | 0.762 | 0.981 | 0.775 | 1.05 | 0.645 | 0.83 | 0.907 | 1.13 | 0.801 | 0.667 | 0.368 | 0.361 | 0.418 | 0.34 | 0.856 | 1.01 | 1.04 | 0.956
